Legend:
Assay in all cases: KINOMEscan competition binding
Conditions in all cases: compound 10.0 µM
FGR (human) = FGR (human) (UniProt P09769)
PRKG1 (human) = PRKG1 (human) (UniProt Q13976)
MST4 (human) = MST4 (human) (UniProt Q9P289)
CLK2 (human) = CLK2 (human) (UniProt P49760)
MAPK1 (human) = MAPK1 (human) (UniProt P28482)
MAP3K5 (human) = MAP3K5 (human) (UniProt Q99683)
CDK3 (human) = CDK3 (human) (UniProt Q00526)
CDC2L2 (human) = CDC2L2 (human) (UniProt Q9UQ88)
AKT2 (human) = AKT2 (human) (UniProt P31751)
PRKD1 (human) = PRKD1 (human) (UniProt Q15139)
TLK2 (human) = TLK2 (human) (UniProt Q86UE8)
PKN2 (human) = PKN2 (human) (UniProt Q16513)
DYRK1B (human) = DYRK1B (human) (UniProt Q9Y463)
SRMS (human) = SRMS (human) (UniProt Q9H3Y6)
ADCK3 (human) = ADCK3 (human) (UniProt Q8NI60)
FRK (human) = FRK (human) (UniProt P42685)
MAPK15 (human) = MAPK15 (human) (UniProt Q8TD08)
SRPK3 (human) = SRPK3 (human) (UniProt Q9UPE1)
MAPK14 (human) = MAPK14 (human) (UniProt Q16539)
LATS1 (human) = LATS1 (human) (UniProt O95835)
DAPK2 (human) = DAPK2 (human) (UniProt Q9UIK4)
RET (human) = RET (human) (UniProt P07949)
PIK3CD (human) = PIK3CD (human) (UniProt O00329)
MAPKAPK5 (human) = MAPKAPK5 (human) (UniProt Q8IW41)
ULK2 (human) = ULK2 (human) (UniProt Q8IYT8)
ACVR2A (human) = ACVR2A (human) (UniProt P27037)
TGFBR1 (human) = TGFBR1 (human) (UniProt P36897)
RPS6KA6 KD1 (human) = RPS6KA6 KD1 (human) (UniProt Q9UK32)
RPS6KA6 KD2 (human) = RPS6KA6 KD2 (human) (UniProt Q9UK32)
LIMK2 (human) = LIMK2 (human) (UniProt P53671)
CAMK2B (human) = CAMK2B (human) (UniProt Q13554)
DDR2 (human) = DDR2 (human) (UniProt Q16832)
ERBB4 (human) = ERBB4 (human) (UniProt Q15303)
PHKG1 (human) = PHKG1 (human) (UniProt Q16816)
CDC42BPB (human) = CDC42BPB (human) (UniProt Q9Y5S2)
ERBB2 (human) = ERBB2 (human) (UniProt P04626)
AURKB (human) = AURKB (human) (UniProt Q96GD4)
HIPK1 (human) = HIPK1 (human) (UniProt Q86Z02)
ULK3 (human) = ULK3 (human) (UniProt Q6PHR2)
FGFR3 (human) = FGFR3 (human) (UniProt P22607)

AURKB (human), sequence (Q96GD4 whole entry, looked up): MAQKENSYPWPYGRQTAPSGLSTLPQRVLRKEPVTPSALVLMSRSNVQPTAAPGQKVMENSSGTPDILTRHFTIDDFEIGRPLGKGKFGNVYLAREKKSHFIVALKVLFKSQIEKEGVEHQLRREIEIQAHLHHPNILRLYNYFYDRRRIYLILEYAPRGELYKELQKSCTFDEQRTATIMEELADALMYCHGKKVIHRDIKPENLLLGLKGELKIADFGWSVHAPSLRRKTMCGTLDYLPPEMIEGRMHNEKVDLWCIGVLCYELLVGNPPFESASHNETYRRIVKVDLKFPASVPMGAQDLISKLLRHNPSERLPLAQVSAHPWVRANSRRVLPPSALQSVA
DAPK2 (human), sequence (Q9UIK4 whole entry, looked up): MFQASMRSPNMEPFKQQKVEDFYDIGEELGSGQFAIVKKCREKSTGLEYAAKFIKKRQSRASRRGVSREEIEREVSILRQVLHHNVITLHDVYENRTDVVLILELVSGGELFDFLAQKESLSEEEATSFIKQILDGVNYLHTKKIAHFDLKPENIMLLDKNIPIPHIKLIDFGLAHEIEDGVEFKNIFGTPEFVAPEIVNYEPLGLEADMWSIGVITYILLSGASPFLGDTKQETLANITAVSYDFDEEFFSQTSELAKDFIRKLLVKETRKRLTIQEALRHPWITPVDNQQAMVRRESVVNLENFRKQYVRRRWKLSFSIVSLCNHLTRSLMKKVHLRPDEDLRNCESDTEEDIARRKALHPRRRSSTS
ULK3 (human), sequence (Q6PHR2 whole entry, looked up): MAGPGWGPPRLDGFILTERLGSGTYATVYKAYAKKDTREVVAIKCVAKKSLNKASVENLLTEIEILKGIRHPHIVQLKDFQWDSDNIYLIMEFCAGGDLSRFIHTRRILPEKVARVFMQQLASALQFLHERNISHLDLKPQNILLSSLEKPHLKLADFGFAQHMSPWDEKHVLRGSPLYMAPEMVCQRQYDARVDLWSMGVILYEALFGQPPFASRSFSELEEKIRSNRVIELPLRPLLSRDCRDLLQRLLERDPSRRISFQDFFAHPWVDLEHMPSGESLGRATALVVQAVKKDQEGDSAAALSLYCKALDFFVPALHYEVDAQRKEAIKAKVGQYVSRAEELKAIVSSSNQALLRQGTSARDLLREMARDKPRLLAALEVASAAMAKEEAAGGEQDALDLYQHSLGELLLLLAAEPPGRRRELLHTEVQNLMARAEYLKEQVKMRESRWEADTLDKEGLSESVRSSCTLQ
ERBB2 (human), sequence (P04626 whole entry, looked up): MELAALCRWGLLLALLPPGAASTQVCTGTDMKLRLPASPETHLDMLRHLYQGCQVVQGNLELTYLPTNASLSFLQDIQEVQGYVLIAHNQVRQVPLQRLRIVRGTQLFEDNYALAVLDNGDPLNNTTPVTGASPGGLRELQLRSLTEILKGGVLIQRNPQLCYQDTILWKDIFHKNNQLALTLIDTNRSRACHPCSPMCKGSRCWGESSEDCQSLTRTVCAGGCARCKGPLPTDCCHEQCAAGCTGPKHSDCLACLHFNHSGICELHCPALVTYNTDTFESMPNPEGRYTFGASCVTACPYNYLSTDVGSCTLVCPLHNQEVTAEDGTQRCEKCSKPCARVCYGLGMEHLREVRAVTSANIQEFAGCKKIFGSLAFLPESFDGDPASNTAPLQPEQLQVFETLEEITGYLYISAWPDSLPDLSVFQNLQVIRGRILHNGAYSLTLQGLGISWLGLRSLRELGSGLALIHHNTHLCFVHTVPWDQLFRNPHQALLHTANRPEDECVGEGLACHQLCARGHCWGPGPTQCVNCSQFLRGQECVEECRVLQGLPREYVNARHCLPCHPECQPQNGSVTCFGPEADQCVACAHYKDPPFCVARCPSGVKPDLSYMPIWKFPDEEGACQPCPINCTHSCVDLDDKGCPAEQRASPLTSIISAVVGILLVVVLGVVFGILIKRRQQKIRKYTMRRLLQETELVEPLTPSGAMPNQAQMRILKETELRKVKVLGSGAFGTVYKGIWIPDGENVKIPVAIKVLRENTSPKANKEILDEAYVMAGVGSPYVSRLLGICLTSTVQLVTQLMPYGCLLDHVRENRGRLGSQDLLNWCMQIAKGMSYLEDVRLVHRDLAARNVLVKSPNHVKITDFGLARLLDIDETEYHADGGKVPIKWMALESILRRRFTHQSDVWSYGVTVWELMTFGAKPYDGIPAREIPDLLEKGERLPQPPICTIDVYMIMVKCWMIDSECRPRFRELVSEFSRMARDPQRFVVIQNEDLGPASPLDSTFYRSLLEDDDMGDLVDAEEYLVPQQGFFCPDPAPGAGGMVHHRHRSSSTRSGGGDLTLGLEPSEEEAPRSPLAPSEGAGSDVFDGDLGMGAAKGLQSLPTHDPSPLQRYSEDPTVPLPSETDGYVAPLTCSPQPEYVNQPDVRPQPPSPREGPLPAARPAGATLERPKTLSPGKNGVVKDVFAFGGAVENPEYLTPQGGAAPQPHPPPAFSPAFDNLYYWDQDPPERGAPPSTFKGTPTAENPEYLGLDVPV
SRMS (human), sequence (Q9H3Y6 whole entry, looked up): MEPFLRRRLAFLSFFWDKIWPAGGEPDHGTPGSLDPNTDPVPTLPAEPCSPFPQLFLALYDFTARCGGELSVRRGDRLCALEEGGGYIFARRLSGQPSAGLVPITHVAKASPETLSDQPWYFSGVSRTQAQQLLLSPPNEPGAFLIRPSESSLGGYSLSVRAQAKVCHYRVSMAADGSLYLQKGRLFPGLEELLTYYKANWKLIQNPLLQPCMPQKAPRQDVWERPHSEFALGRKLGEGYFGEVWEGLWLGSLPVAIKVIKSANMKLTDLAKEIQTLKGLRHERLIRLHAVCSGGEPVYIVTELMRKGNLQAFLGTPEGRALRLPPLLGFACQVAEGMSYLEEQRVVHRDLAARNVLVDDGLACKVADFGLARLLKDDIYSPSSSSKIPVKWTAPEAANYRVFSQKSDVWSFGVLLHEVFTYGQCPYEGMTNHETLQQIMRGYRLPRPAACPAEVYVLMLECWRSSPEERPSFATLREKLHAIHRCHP
ULK2 (human), sequence (Q8IYT8 whole entry, looked up): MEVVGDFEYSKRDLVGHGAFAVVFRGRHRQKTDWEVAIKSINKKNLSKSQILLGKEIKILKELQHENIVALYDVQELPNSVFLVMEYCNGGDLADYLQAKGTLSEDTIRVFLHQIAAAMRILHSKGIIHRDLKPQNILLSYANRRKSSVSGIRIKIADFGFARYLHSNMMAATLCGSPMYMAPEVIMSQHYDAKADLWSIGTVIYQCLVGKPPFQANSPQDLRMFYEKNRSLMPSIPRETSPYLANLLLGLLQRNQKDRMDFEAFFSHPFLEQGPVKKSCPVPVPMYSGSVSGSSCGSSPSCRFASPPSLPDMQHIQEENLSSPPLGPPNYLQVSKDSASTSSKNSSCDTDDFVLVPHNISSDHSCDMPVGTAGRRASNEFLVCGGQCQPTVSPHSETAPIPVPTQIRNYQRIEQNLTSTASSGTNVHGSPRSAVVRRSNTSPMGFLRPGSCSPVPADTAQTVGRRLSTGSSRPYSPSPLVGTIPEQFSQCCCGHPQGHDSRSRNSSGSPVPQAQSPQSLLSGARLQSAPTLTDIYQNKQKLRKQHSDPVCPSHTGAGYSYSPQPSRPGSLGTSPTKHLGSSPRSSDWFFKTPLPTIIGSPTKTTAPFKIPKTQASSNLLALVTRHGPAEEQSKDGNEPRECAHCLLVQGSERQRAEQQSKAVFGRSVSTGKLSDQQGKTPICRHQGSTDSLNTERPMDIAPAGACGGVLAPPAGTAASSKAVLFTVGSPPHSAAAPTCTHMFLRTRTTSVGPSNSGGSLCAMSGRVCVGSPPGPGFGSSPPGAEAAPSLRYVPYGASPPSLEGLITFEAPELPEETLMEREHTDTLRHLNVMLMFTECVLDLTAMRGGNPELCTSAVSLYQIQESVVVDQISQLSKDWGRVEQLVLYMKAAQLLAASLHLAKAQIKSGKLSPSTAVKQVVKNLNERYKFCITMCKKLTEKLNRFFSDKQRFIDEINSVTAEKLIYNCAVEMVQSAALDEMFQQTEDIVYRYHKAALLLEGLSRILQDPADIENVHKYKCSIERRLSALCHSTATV
AKT2 (human), sequence (P31751 whole entry, looked up): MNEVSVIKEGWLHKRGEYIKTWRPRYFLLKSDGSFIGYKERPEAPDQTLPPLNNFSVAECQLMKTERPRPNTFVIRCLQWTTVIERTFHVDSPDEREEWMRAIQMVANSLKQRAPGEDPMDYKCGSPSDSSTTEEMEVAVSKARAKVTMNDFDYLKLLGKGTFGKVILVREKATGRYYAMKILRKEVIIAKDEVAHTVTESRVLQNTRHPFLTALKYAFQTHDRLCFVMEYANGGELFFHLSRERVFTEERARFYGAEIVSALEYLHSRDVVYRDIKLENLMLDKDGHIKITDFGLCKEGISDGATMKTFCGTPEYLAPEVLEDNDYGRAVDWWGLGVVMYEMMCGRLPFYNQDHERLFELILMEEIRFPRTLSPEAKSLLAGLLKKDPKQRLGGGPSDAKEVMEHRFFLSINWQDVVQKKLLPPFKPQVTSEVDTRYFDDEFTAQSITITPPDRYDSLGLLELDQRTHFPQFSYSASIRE
TGFBR1 (human), sequence (P36897 whole entry, looked up): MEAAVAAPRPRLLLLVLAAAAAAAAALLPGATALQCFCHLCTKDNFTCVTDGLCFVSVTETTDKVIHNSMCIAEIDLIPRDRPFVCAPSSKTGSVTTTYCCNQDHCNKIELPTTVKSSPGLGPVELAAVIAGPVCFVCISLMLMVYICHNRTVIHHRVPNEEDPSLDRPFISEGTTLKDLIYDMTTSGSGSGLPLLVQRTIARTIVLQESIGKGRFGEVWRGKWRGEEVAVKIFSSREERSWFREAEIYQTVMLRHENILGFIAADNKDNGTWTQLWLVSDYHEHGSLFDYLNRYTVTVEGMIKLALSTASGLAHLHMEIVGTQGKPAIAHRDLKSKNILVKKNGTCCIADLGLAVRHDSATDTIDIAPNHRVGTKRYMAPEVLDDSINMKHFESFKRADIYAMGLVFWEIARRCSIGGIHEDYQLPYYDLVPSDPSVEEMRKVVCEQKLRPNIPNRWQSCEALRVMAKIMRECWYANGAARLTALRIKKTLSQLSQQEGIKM

Compound | kinase still bound, per cent of control (FGR (human)) | kinase still bound, per cent of control (PRKG1 (human)) | kinase still bound, per cent of control (MST4 (human)) | kinase still bound, per cent of control (CLK2 (human)) | kinase still bound, per cent of control (MAPK1 (human)) | kinase still bound, per cent of control (MAP3K5 (human)) | kinase still bound, per cent of control (CDK3 (human)) | kinase still bound, per cent of control (CDC2L2 (human)) | kinase still bound, per cent of control (AKT2 (human)) | kinase still bound, per cent of control (PRKD1 (human)) | kinase still bound, per cent of control (TLK2 (human)) | kinase still bound, per cent of control (PKN2 (human)) | kinase still bound, per cent of control (DYRK1B (human)) | kinase still bound, per cent of control (SRMS (human)) | kinase still bound, per cent of control (ADCK3 (human)) | kinase still bound, per cent of control (FRK (human)) | kinase still bound, per cent of control (MAPK15 (human)) | kinase still bound, per cent of control (SRPK3 (human)) | kinase still bound, per cent of control (MAPK14 (human)) | kinase still bound, per cent of control (LATS1 (human)) | other results
CN(C)C/C=C/C(=O)Nc1cccc(Nc2ncc3c(n2)N(C)c2ccccc2C(=O)N3C)c1 | 4.2% | 100% | 31% | 41% | 100% | 100% | 100% | 100% | 99% | 15% | 88% | 64% | 100% | 57% | 74% | 18% | 100% | 63% | 100% | 100% | kinase still bound, per cent of control (DAPK2 (human)): 69%; kinase still bound, per cent of control (RET (human)): 0.15%; kinase still bound, per cent of control (PIK3CD (human)): 2.2%; kinase still bound, per cent of control (MAPKAPK5 (human)): 85%; kinase still bound, per cent of control (ULK2 (human)): 0.2%; kinase still bound, per cent of control (ACVR2A (human)): 57%; kinase still bound, per cent of control (TGFBR1 (human)): 25%; kinase still bound, per cent of control (RPS6KA6 KD1 (human)): 9.2%; kinase still bound, per cent of control (RPS6KA6 KD2 (human)): 0.6%; kinase still bound, per cent of control (LIMK2 (human)): 94%; kinase still bound, per cent of control (CAMK2B (human)): 40%; kinase still bound, per cent of control (DDR2 (human)): 11%; kinase still bound, per cent of control (ERBB4 (human)): 100%; kinase still bound, per cent of control (PHKG1 (human)): 69%; kinase still bound, per cent of control (CDC42BPB (human)): 100%; kinase still bound, per cent of control (ERBB2 (human)): 65%; kinase still bound, per cent of control (AURKB (human)): 0.1%; kinase still bound, per cent of control (HIPK1 (human)): 76%; kinase still bound, per cent of control (ULK3 (human)): 45%; kinase still bound, per cent of control (FGFR3 (human)): 12%
Cc1ccc(C(=O)Nc2cccc(C(F)(F)F)c2)cc1Nc1cncc(C(N)=O)c1 | 100% | 100% | 100% | 100% | 100% | 100% | 100% | 100% | 100% | 100% | 100% | 100% | 100% | 100% | 100% | 1.3% | 100% | 100% | 5% | 100% | kinase still bound, per cent of control (DAPK2 (human)): 100%; kinase still bound, per cent of control (RET (human)): 100%; kinase still bound, per cent of control (PIK3CD (human)): 100%; kinase still bound, per cent of control (MAPKAPK5 (human)): 100%; kinase still bound, per cent of control (ULK2 (human)): 100%; kinase still bound, per cent of control (ACVR2A (human)): 100%; kinase still bound, per cent of control (TGFBR1 (human)): 100%; kinase still bound, per cent of control (RPS6KA6 KD1 (human)): 100%; kinase still bound, per cent of control (RPS6KA6 KD2 (human)): 100%; kinase still bound, per cent of control (LIMK2 (human)): 100%; kinase still bound, per cent of control (CAMK2B (human)): 100%; kinase still bound, per cent of control (DDR2 (human)): 0%; kinase still bound, per cent of control (ERBB4 (human)): 100%; kinase still bound, per cent of control (PHKG1 (human)): 100%; kinase still bound, per cent of control (CDC42BPB (human)): 100%; kinase still bound, per cent of control (ERBB2 (human)): 100%; kinase still bound, per cent of control (AURKB (human)): 100%; kinase still bound, per cent of control (HIPK1 (human)): 100%; kinase still bound, per cent of control (ULK3 (human)): 100%; kinase still bound, per cent of control (FGFR3 (human)): 100%

Reference: the kinase profiling compilation of Christmann-Franck et al. (2016)
